# Patent US7632864B2, “Gabapentin analogues and process thereof” (Hikal Ltd., priority 2005, dated 2009)
# Columns and labels:
# [1] = water solubility (precipitation of free amino acid at pH 7); format: physicochemical; details: compared to the other gabapentin analogues
# Method: The process for the preparation of the cis and trans isomer of 4-t-butylgabapentin has been achieved, as outlined in Fig. I. 4-t-Butyl-cyclohexanone (I) was treated with ethylcyano acetate and ammonia in methanol to yield ammonium salt of dicyanoimide (2). Hydrolysis of (2) with hot sulfuric acid afforded the diacid (3) which was converted to the anhydride (4). (4) treated with aqueous ammonia to give the mono-amide (5) as a mixture containing approximately equal proportions of stereoisomers. Reaction of (5) with sodium hypobromite solution led to the formation of lactam (6) as a mixture of stereoisomers [proton NMR (7) and its isomer with NCH2 axial in the ratio of 3:2] from which one of the isomer could be crystallized out in pure form from methanol-hexane, mp 176-7° C. and its structure identified as (7) by NMR and single crystal X-ray analysis (Hydrolysis of lactam (6) with hot concentrated HCl gave a mixture of isomers of 4-t-butyl gabapentin hydrochloride (8). Crystallization of (8) from water afforded in pure form, mp 146-147° C., the isomer hemihydrate (9) with aminomethyl group in the anxial position. […]
# [2] = system: alpha 2 detla sub unit derived from porcine brain tissue; details: radio ligand binding, compound without stereochemistry, value from U.S. Pat. No. 6,103,932; cited from earlier work
SMILES,melting point [°C],water solubility [1],IC50 [2] [µM]
"CC(C)(C)C1CCC(CN)(CC(=O)O)CC1 (stereo not shown) [Compound 10, 4-t-butylgabapentin]",182 to 183,much poorer water solubility,–
CC(C)(C)C1CCC(CN)(CC(=O)O)CC1 (stereo not shown) [4-t-butyl gabapentin],176 to 180,–,200
